Experimental data from PMC7343857, “New natural agonists of the transient receptor potential Ankyrin 1 (TRPA1) channel” (Scientific Reports, 2020).
Like-named read-outs stand apart in the source and are kept apart here.

Molecular target: T1, hTRPA1 (Homo sapiens, UniProt O75762)
T1 construct: gene TRPA1
Assay: ratiometric calcium imaging and whole-cell patch clamp in CHO cells with inducible hTRPA1; non-induced cells as control
Format: cell-based

T1 sequence (O75762 whole entry): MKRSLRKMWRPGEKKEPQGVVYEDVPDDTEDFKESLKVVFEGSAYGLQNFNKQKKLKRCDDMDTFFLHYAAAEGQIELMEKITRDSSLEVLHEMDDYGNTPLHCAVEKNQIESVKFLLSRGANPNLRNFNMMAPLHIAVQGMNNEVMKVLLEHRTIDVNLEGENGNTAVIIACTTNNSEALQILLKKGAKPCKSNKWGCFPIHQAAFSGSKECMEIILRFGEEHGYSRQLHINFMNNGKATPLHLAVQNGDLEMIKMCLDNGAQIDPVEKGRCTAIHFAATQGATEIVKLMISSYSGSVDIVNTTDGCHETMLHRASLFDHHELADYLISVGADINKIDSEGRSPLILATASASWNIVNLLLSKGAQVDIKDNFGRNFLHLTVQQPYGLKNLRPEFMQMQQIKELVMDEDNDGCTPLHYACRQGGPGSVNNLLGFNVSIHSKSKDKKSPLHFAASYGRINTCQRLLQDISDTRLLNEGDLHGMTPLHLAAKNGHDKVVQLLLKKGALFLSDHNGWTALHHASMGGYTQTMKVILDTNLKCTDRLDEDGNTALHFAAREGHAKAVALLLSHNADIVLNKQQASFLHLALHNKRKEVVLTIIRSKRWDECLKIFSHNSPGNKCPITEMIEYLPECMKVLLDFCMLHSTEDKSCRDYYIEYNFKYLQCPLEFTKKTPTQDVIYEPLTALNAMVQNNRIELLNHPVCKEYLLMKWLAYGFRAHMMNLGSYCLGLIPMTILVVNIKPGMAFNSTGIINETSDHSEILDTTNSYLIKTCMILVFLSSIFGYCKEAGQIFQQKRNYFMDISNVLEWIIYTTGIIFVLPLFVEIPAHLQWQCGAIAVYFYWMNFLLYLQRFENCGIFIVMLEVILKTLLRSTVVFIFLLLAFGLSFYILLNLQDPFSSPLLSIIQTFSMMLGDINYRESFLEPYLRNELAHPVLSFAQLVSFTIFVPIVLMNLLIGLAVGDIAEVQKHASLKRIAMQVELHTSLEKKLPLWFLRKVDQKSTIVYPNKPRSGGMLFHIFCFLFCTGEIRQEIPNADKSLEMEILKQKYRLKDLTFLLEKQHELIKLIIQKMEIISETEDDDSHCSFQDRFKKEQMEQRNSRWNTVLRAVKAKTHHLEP

Row | Structure (SMILES) | EC50 | EC50 (read-out: EC50)
1 | COc1ccc(C=O)cc1 [p-anisaldehyde] | 910 µM | –
2 | C/C=C(\C)C=O [tiglic aldehyde] | – | 1490 µM
3 | CC(C)c1ccc(C=O)cc1 [cuminaldehyde] | – | 720 µM
